In one assay the test system is HCT116 cell. In words: Proliferation inhibition on human colon cancer cell HCT116 (CCK8). It counts as cell-based. Conditions: HCT-116, HCT116, 72 hours. The text has this:
The following in vitro cell assay was used to determine the activity of the compounds of the present invention for inhibiting the proliferation of human colon cancer cell, and the activity is expressed as IC50.
Cell line which was used in the experiment: HCT116 (Cell Bank of the Chinese Academy of Sciences, Catalog No. TCHu99).
General programs of this kind of assay were as follows: First, the cell line to be tested was inoculated in a 384-well culture plate with a suitable cell concentration of 1000 cells/well, and was cultured in an incubator under the conditions of 37° C. and 5% CO2, then grown overnight. The medium was replaced by new medium added with a series of concentrations (1000 nM, 250 nM, 62.50 nM, 15.63 nM, 3.91 nM, 0.98 nM, 0.24 nM, 0.06 nM, 0.015 nM, 0.004 nM) of the test compound solutions. The plates were placed back in the incubator, and continuously cultured for 72 hours. After 72 hours, CCK8 (Cell Counting Kit-8, Catalog No.: CK04, purchased from colleagues chemical company) method was used to determine the proliferation inhibition activity of the test compounds. IC50 values were calculated from the inhibition data of the test compounds at a series of different concentrations.
The above assay was used to determine the biochemical activity of the compounds of the present invention.

The target in another assay is T1, CYP2C9 (Homo sapiens, UniProt P11712).
T1 construct: from tissue; host or cells: human liver microsomes
T1 sequence (P11712 whole entry): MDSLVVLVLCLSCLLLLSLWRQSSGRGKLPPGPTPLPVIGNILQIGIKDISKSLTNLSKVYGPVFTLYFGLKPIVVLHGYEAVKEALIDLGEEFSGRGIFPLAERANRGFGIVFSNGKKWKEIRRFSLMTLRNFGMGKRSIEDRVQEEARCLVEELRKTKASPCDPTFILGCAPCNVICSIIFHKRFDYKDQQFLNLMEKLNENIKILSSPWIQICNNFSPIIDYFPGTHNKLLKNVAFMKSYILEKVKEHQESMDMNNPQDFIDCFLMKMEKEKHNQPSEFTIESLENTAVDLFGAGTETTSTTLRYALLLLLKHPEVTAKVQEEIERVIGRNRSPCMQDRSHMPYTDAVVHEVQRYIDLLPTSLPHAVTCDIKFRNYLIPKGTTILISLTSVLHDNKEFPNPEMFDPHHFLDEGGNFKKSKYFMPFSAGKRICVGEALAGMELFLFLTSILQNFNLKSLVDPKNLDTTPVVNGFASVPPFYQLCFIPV
Put plainly: In vitro CYP enzyme inhibition, human liver microsomes. Conditions: probe Diclofenac, single point method. It counts as in vitro ADME. The method, then:
(§1) Human liver microsome incubation system was used to reflect the activity of enzymes based on the amount of metabolites produced. Enzyme inhibition of the test compounds was investigated on CYP1A2, CYP2C9, […], CYP3A4m, CYP3A4t and CYP2C19, and IC50 values (a concentration of the test compound that is required for 50% inhibition of enzyme activity) were measured. […] The appropriate amount of test compound standard sample was weighed, and diluted with DMSO to 50 mM to obtain stock solution I. The stock solution I was diluted with PBS to 100 μM to obtain the reaction liquid which is to be used in incubation. [table] The reaction mixture was prepared: 60 μL [table] The above mixture was preincubated for 5 minutes at 37° C., followed by addition of 40 μL of NADPH (2.5 mM, PBS formulation). The mixture solution was incubated for 20 minutes at 37° C. All incubated samples were set to double samples. 300 μL ice-cold acetonitrile was added to terminate the reaction. The reaction solution was added with 100 μl internal standard, mixed uniformly, and centrifuged for 10 minutes at 3500 rpm. The supernatant was transferred to the LC-MS/MS analysis. The activity of enzymes was reflected by the production amount of metabolites. Using a single point method, the formula was calculated as follows: According to the known literature: IC50>10 μM belongs to weaker inhibition, 1 μM<IC50<10 μM belong to moderate inhibition, IC50<1 μM belong to strong inhibition.
Background: Liver microsomes are vesicles of endoplasmic reticulum, rich in cytochrome P450 enzymes.

In another assay the target is T2, CYP3A4m (Homo sapiens, UniProt P08684).
T2 construct: from tissue; host or cells: human liver microsomes
T2 sequence (P08684 whole entry): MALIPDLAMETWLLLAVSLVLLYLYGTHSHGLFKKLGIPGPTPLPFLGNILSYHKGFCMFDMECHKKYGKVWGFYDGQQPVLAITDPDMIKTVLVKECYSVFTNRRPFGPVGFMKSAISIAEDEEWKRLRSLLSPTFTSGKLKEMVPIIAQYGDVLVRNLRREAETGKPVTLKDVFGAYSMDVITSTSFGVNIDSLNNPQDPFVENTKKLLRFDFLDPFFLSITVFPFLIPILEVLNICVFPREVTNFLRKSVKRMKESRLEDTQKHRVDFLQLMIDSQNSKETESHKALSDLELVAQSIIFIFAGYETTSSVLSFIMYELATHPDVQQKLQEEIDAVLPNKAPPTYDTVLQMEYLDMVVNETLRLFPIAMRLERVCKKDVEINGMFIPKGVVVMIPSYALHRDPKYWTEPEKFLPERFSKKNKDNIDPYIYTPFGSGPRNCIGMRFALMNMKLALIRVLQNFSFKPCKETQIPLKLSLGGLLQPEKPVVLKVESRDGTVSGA
The description is as above. It is filed as in vitro ADME. The note with it: probe Midazolam, single point method. The method, then: as §1

Another assay deals with T3, CYP2C19 (Homo sapiens, UniProt P33261).
T3 construct: from tissue; host or cells: human liver microsomes
T3 sequence (P33261 whole entry): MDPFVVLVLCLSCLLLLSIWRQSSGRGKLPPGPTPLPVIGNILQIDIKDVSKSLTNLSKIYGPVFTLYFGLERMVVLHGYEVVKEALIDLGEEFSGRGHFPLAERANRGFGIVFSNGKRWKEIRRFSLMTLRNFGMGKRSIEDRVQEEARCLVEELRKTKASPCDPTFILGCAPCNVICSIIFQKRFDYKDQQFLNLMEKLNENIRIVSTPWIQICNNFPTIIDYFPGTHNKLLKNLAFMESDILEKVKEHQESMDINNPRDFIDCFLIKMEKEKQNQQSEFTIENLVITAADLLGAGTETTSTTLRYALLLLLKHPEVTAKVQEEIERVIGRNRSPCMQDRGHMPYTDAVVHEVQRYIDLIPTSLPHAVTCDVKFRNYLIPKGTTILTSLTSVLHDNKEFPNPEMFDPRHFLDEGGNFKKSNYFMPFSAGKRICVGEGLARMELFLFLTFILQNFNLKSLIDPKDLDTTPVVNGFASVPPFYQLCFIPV
Described as above. It counts as in vitro ADME. Conditions: probe (S)-Mephenytoin, single point method. The method, then:
as §1

For a further assay, the target named is T4, CYP3A4t (Homo sapiens, UniProt P08684).
T4 construct: from tissue; host or cells: human liver microsomes
T4 sequence (P08684 whole entry): as the sequence (P08684 whole entry) above
The description is as above. Conditions: probe Testosterone, single point method. It is filed as in vitro ADME. The protocol: as §1

In assay [1] the target is T5, MAP2K2 (MEK2) Recombinant Human Protein (Homo sapiens, UniProt P36507).
T5 construct: purchased Invitrogen PV3615 (MEK2); PV3314 (ERK2)
T5 sequence (P36507 whole entry): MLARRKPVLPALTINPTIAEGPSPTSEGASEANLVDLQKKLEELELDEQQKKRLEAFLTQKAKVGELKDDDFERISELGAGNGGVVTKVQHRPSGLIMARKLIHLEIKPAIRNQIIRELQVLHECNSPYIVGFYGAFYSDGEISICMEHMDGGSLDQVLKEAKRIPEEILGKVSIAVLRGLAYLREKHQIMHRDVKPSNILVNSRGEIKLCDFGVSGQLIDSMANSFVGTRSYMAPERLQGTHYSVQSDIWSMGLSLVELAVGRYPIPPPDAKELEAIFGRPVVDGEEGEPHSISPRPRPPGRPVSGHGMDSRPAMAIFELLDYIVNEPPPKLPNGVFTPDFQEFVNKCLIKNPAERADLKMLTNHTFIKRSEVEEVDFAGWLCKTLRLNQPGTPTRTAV
Put plainly: MEK2 kinase inhibition assay (Z'-LYTE, MEK2/ERK2 coupled). It counts as biochemical. The note with it: recombinant human MEK2 with ERK2, Z'-LYTE, 1.5 hours at 25° C; read-out: IC50 for inhibiting MEK kinase (MEK2). The protocol:
MEK2 kinase activity was tested in vitro by the following method.
MEK kinase used in the assay:
MAP2K2 (MEK2) Recombinant Human Protein (Invitrogen, Catalog No. PV3615)
MAPK1 (ERK2) Recombinant Human Protein (Invitrogen, Catalog No. PV3314)
Kit used in the assay: Z′-LYTE™ Kinase Assay Kit-Ser/Thr 03 Peptide (Invitrogen, Catalog No. PV3176).
The following in vitro assay was used to determine the activity of the compounds of the present invention for inhibiting the […] MEK kinase. The test compound was dissolved in dimethyl sulfoxide to the desired concentration. 1× Buffer A (Invitrogen, Catalog No. PV3189) was prepared, ATP was diluted with 1× Buffer A to obtain 400 μM ATP solution, appropriate amounts of Z′-LYTE™ Ser/Thr 03 Peptide (Invitrogen, Catalog No. PV3200), MEK kinase (MEK 2) enzymes, (ERK2) enzymes and 1× Buffer A were mixed, and appropriate amounts of Z′-LYTE™ Ser/Thr 03 phosphoPeptide substrate (Invitrogen, Catalog No. PV3215) and 1× Buffer A were formulated into a mixture to be tested. The 4% DMSO solution of the test compound was prepared from 1× buffer and DMSO solution of the test compound. 2.5 μL DMSO solution of the test compound was added to a reaction well, and then 2.5 μL of 400 μM ATP solution, 5 μL of enzyme and substrate mixture were added to become a 10 μL reaction system. The reaction system was incubated for 1.5 hours at 25° C., and a mixture was prepared according to Reagent A:Buffer B=1:1024. 5 μL of a mixture of Reagent A (Invitrogen, Catalog No. PV3295) and Buffer B (Invitrogen, Item No. P3127) was added to a reaction well, the reaction system was incubated for 60 minutes at 25° C., and then the fluorescence was read by a NovoStar ELISA with excitation wavelength: 400 nm, and emission wavelength: 445 nm and 520 nm.
The above assay was used to determine the biochemical activity of the compounds of the present invention for inhibiting MEK kinase (MEK2).

Experimental findings from US10064848B2, “Pyridic ketone derivatives, method of preparing same, and pharmaceutical application thereof” (Shanghai Hengrui Pharmaceutical Co., Ltd., priority 2013, dated 2018) are described below.

Where only a bound is given, the exact number is not on record here.

By IC50 is commonly meant the concentration that gives 50% inhibition. In the case of `Cc1c(F)cccc1Oc1cc(=O)n(C)c(Nc2ccc(I)cc2F)c1C(N)=O` [Example 1, 4-(3-fluoro-2-methylphenoxy)-2-((2-fluoro-4-iodophenyl)amino)-1-methyl-6-oxo-1,6-dihydropyridine-3-carboxamide], the IC50 is 8.6 nM in the assay with HCT116 cell; over 10 µM against CYP2C9; over 10 µM at CYP3A4m; over 10 µM on CYP2C19; over 10 µM against CYP3A4t; 0.108 µM in assay [1].

Regarding `CCS(=O)(=O)Nc1cccc(Oc2cc(=O)n(C)c(Nc3ccc(I)cc3F)c2C(N)=O)c1C` [Example 3, 4-(3-(ethylsulfonamido)-2-methylphenoxy)-2-((2-fluoro-4-iodophenyl)amino)-1-methyl-6-oxo-1,6-dihydropyridine-3-carboxamide], the IC50 in the assay on HCT116 cell is 0.06 nM; against CYP2C9, over 50 µM; at CYP3A4m, over 50 µM; at CYP2C19, over 10 µM; at CYP3A4t, over 50 µM; in assay [1], 0.0198 µM.

With `Cc1cc(F)ccc1Oc1cc(=O)n(C)c(Nc2ccc(I)cc2F)c1C(N)=O` [Example 22, 4-(4-fluoro-2-methylphenoxy)-2-((2-fluoro-4-iodophenyl)amino)-1-methyl-6-oxo-1,6-dihydropyridine-3-carboxamide], the half-maximal inhibitory concentration (IC50) in the assay on HCT116 cell was 10.3 nM; against CYP2C9, over 10 µM; against CYP3A4m it was over 10 µM; at CYP2C19, over 10 µM; on CYP3A4t it was over 10 µM; in assay [1], 0.121 µM.

Turning to `Cc1ncccc1Oc1cc(=O)n(C)c(Nc2ccc(I)cc2F)c1C(N)=O` [Example 29, 2-((2-fluoro-4-iodophenyl)amino)-1-methyl-4-((2-methylpyridin-3-yl)oxy)-6-oxo-1,6-dihydropyridine-3-carboxamide], the half-inhibitory concentration (IC50) with HCT116 cell is 8.9 nM; against CYP2C9 it was over 10 µM; against CYP3A4m it was over 10 µM; against CYP2C19, over 10 µM; against CYP3A4t, over 10 µM; in assay [1], 0.217 µM.

`Cc1ccc(Oc2cc(=O)n(C)c(Nc3ccc(I)cc3F)c2C(N)=O)cn1` [Example 31, 2-((2-fluoro-4-iodophenyl)amino)-1-methyl-4-((6-methylpyridin-3-yl)oxy)-6-oxo-1,6-dihydropyridine-3-carboxamide]: the IC50 in the assay with HCT116 cell was 36.4 nM; on CYP2C9, over 10 µM; against CYP3A4m it was over 10 µM; against CYP2C19, over 10 µM; against CYP3A4t it was over 10 µM; in assay [1], 0.351 µM.
